Data taken from PubChem BioAssay (NCI).
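96-well plates; 48 h exposure; 5 concentrations. Endpoints by linear interpolation between flanking doses. Not reached: highest tested concentration assigned. GI50 is the concentration that inhibits growth by half. Definition used: TGI = concentration required for complete inhibition of growth.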

Legend:
Assay in all cases: DTP human tumour cell line panel, 48 h
BT-549 breast = system: BT-549 breast
HCT-15 colon = system: HCT-15 colon
MOLT-4 leukemia = system: MOLT-4 leukemia
PC-3 prostate = system: PC-3 prostate
SF-295 CNS = system: SF-295 CNS
SK-MEL-2 melanoma = system: SK-MEL-2 melanoma
SN12C renal = system: SN12C renal
TK-10 renal = system: TK-10 renal

Compound | GI50 (BT-549 breast) [µM] | TGI (BT-549 breast) [µM] | GI50 (HCT-15 colon) [µM] | TGI (HCT-15 colon) [µM] | GI50 (MOLT-4 leukemia) [µM] | TGI (MOLT-4 leukemia) [µM] | GI50 (PC-3 prostate) [µM] | TGI (PC-3 prostate) [µM] | GI50 (SF-295 CNS) [µM] | TGI (SF-295 CNS) [µM] | GI50 (SK-MEL-2 melanoma) [µM] | TGI (SK-MEL-2 melanoma) [µM] | GI50 (SN12C renal) [µM] | TGI (SN12C renal) [µM] | GI50 (TK-10 renal) [µM] | TGI (TK-10 renal) [µM]
Cc1ccc(C2C3Cc4ccccc4C3=NN2c2ccc(S(=O)(=O)NC(=O)Nc3ccccc3)cc2)cc1 (stereo unspecified) | 14.7 | 34.5 | 14.8 | 32.2 | 8.88 | 34.4 | 13.5 | 26.3 | 12.8 | 33.6 | 14.2 | 31.5 | 14 | 26.9 | 16 | 36.4
CC(=N/NC(N)=S)/C(C)=N/NC(N)=S |  | > 100 |  | > 100 |  | > 100 |  | > 100 |  |  |  | > 100 |  | > 100 |  | > 100
CCOC(=O)CCSC1=CC(=O)c2nc3ccccc3c3ccnc1c23 | 17.1 | 34.3 | 24.8 | 92.9 | 7.31 | > 100 | 13.5 | 38.7 | 17.1 | 44.3 | 26.8 | 72.8 | 15.7 | 31.8 | 16.7 | 32.4
CCOC(=O)c1cc2c(n1Cc1cc(OC)cc(OC)c1)-c1oncc1CC2 | 4.37 | > 100 | 0.13 | > 100 | 0.525 | > 100 | 0.383 | > 100 | 0.0518 |  | > 100 | > 100 | 0.994 | > 100 | 3.58 | > 100
C/C(=N\NC(=S)N1CCN(c2ccccn2)CC1)c1cccc2cccnc12 |  | > 100 |  | > 100 |  | > 62.2 |  | > 100 |  | 55.8 |  | 8.56 |  | 34.8 |  | > 100
CC[Si](CC)(CC)OC1[C@@H](O[Si](CC)(CC)CC)[C@@H](CNC(=O)NC)O[C@H]1n1cnc2c(NC(=O)Nc3ccccc3)ncnc21 (stereo partly specified) | 3 | 12.2 | 3.78 | > 100 |  |  |  |  | 2.89 | 11.7 | 2.49 | 5.9 | 2.04 | 4.92 | 2.65 | 9.88
O=C(c1ccc(Nc2nccc(NCCCCNc3ccnc4cc(Cl)ccc34)n2)cc1)N1CCCCC1 | 1.75 | 3.42 | 1.69 | 6.43 | 1.74 | 5.99 | 0.955 | 7.89 | 1.54 | 3.33 | 2.08 | 4.03 | 2.38 | 9.29 | 2.16 | 4.83
C[C@@H](Oc1cc(-c2cnn(C3CCNCC3)c2)cnc1N)c1c(Cl)cc(F)cc1Cl | 4.08 | 13 | 2.7 | 12.5 | 0.866 | 7.71 | 1.99 | 14.7 | 0.505 | 7.23 | 1.95 | 5.41 | 1.95 | 13.3 | 3.6 | 11.6
